# “Also recorded” adds a separate entry of the source. Where no end group is shown, it is not given here.
# Assay: Treatment toxicity: body weight and drug-induced animal deaths in B16 melanoma-bearing mice
# Format: in vivo, C57BL/6 mice
# Settings: for body weight effect in words (loss / difference vs vehicle group): throughout the course of the study
# Method: The toxic effects of the dosing regimens were also monitored. […] Meanwhile 9H10 was given in two groups via i.p. on Day 3, 6 and 9. […] Tumor volume and body weight were measured every three days, and tumor weights were measured on Day 16 at the end of the study.
# On Day 3, the animals were randomly assigned into nine different weight-matched and tumor-size-matched groups. Dosing was started on Day 3 using the regimen according to Table 2.
# From Day 1 to Day 15, mortality and moribundity were checked twice daily, the body weights were recorded once every 3 days, and tumors were measured using a caliper once every 3 days. At the end of the study (Day 16), the animals were euthanized by CO2 asphyxiation, and the tumors were excised and weighed.
# Toxicity of all treatment regimens was evaluated with the body weights of the study animals along with the drug-induced animal deaths. The inhibition of body weight was calculated using Excel according to the equation below:
# PIBW(%)=100×(BW vehicle−BW drug treated)/BW vehicle
# Inter-group comparison was performed in terms of tumor volume, tumor weight and body weight, using a student's t test. P values of less than 0.05 were considered to be statistically significant.
compound,measurement,setting,value
"Thymosin Alpha-1 (Ac-SDAAVDTSSEITTKDLKEKKEVVEEAEN; ends and bridges not checked; UniProt P06454 2-29, looked up) [TA-1, 28 amino acid peptide, immunomodulator; test article (SciClone), 6 mg/kg s.c. daily]",Body weights on Day 0,"Day 0, animal F1",21.40 g
same,Body weights on Day 0,"Day 0, animal F2",19.20 g
same,Body weights on Day 0,"Day 0, animal F3",21.10 g
same,Body weights on Day 0,"Day 0, animal F4",20.20 g
same,Body weights on Day 0,"Day 0, animal F5",19.00 g
same,Body weights on Day 0,"Day 0, animal M1",21.60 g
same,Body weights on Day 0,"Day 0, animal M2",22.50 g
same,Body weights on Day 0,"Day 0, animal M3",22.10 g
same,Body weights on Day 0,"Day 0, animal M4",21.70 g
same,Body weights on Day 0,"Day 0, animal M5",19.80 g
same,Percent inhibition of body weight vs vehicle (PIBW),Day 0,−0.1440%
same,Body Weight (g) (Mean ± SD),Day 3 (start of dosing),20.44 ± 1.460 g
same,Body weights on Day 3,"Day 3, animal F3",20.40 g
same,Body weights on Day 3,"Day 3, animal F4",20.30 g
same,Body weights on Day 3,"Day 3, animal F5",17.20 g
same,Body weights on Day 3,"Day 3, animal M1",21.40 g
same,Body weights on Day 3,"Day 3, animal M2",22.20 g
same,Body weights on Day 3,"Day 3, animal M3",21.60 g
same,Body weights on Day 3,"Day 3, animal M4",21.50 g
same,Percent inhibition of body weight vs vehicle (PIBW),Day 3,2.1073%
same,Body Weight (g) (Mean ± SD),Day 6,21.38 ± 1.220 g
same,Body weights on Day 6,"Day 6, animal F1",22.10 g
same,Body weights on Day 6,"Day 6, animal F2",20.10 g
same,Body weights on Day 6,"Day 6, animal F3",21.80 g
same,Body weights on Day 6,"Day 6, animal F4",20.80 g
same,Body weights on Day 6,"Day 6, animal F5",20.20 g
same,Body weights on Day 6,"Day 6, animal M1",22.00 g
same,Body weights on Day 6,"Day 6, animal M2",22.90 g
same,Body weights on Day 6,"Day 6, animal M3",22.30 g
same,Body weights on Day 6,"Day 6, animal M4",22.40 g
same,Body weights on Day 6,"Day 6, animal M5",19.20 g
same,Percent inhibition of body weight vs vehicle (PIBW),Day 6,−4.8039%
same,Body weights on Day 9,"Day 9, animal F1",21.50 g
same,Body weights on Day 9,"Day 9, animal F2",19.70 g
same,Body weights on Day 9,"Day 9, animal F3",20.30 g
same,Body weights on Day 9,"Day 9, animal F4",20.40 g
same,Body weights on Day 9,"Day 9, animal F5",19.20 g
same,Body weights on Day 9,"Day 9, animal M1",21.50 g
same,Body weights on Day 9,"Day 9, animal M2",22.40 g
same,Body weights on Day 9,"Day 9, animal M3",22.00 g
same,Body weights on Day 9,"Day 9, animal M4",21.90 g
same,Body weights on Day 9,"Day 9, animal M5",19.90 g
same,Percent inhibition of body weight vs vehicle (PIBW),Day 9,−2.3028%
same,Body Weight (g) (Mean ± SD),Day 12,21.24 ± 1.623 g
same,Body weights on Day 12,"Day 12, animal F1",21.90 g
same,Body weights on Day 12,"Day 12, animal F2",19.10 g
same,Body weights on Day 12,"Day 12, animal F3",20.70 g
same,Body weights on Day 12,"Day 12, animal F5",18.90 g
same,Body weights on Day 12,"Day 12, animal M1",22.60 g
same,Body weights on Day 12,"Day 12, animal M2",23.50 g
same,Body weights on Day 12,"Day 12, animal M3",22.70 g
same,Body weights on Day 12,"Day 12, animal M4",22.40 g
same,Body weights on Day 12,"Day 12, animal M5",19.70 g
same,Percent inhibition of body weight vs vehicle (PIBW),Day 12,2.9694%
same,Body Weight (g) (Mean ± SD),Day 15,22.74 ± 1.459 g
same,Body weights on Day 15,"Day 15, animal F1",24.30 g
same,Body weights on Day 15,"Day 15, animal F2",20.70 g
same,Body weights on Day 15,"Day 15, animal F3",22.30 g
same,Body weights on Day 15,"Day 15, animal F4",21.80 g
same,Body weights on Day 15,"Day 15, animal F5",21.30 g
same,Body weights on Day 15,"Day 15, animal M1",22.60 g
same,Body weights on Day 15,"Day 15, animal M2",24.50 g
same,Body weights on Day 15,"Day 15, animal M3",24.70 g
same,Body weights on Day 15,"Day 15, animal M4",23.70 g
same,Body weights on Day 15,"Day 15, animal M5",21.50 g
same,Percent inhibition of body weight vs vehicle (PIBW),Day 15,−2.7100%
same,body weight effect in words (loss / difference vs vehicle group),,did no cause any statistically significant loss of body weights; also recorded: did not cause any loss of body weights
same,body weight effect in words (loss / difference vs vehicle group),listed as TA-1 alone,no statistical differences in body weights
"CN(C)/N=N/c1[nH]cnc1C(N)=O [DTIC, Dacarbazine]",Body Weight (g) (Mean ± SD),"Day 0 (tumor implantation, before dosing)",20.86 ± 1.294 g
same,Body weights on Day 0,"Day 0, animal F1",21.50 g
same,Body weights on Day 0,"Day 0, animal F2",19.90 g
same,Body weights on Day 0,"Day 0, animal F3",19.70 g
same,Body weights on Day 0,"Day 0, animal F4",19.30 g
same,Body weights on Day 0,"Day 0, animal F5",22.10 g
same,Body weights on Day 0,"Day 0, animal M1",22.40 g
same,Body weights on Day 0,"Day 0, animal M2",21.80 g
same,Body weights on Day 0,"Day 0, animal M3",21.00 g
same,Body weights on Day 0,"Day 0, animal M4",18.90 g
same,Body weights on Day 0,"Day 0, animal M5",22.00 g
same,Percent inhibition of body weight vs vehicle (PIBW),Day 0,−0.1440%
same,Body Weight (g) (Mean ± SD),Day 3 (start of dosing),21.02 ± 0.993 g
same,Body weights on Day 3,"Day 3, animal F1",21.60 g
same,Body weights on Day 3,"Day 3, animal F2",19.60 g
same,Body weights on Day 3,"Day 3, animal F3",20.50 g
same,Body weights on Day 3,"Day 3, animal F4",20.30 g
same,Body weights on Day 3,"Day 3, animal F5",21.30 g
same,Body weights on Day 3,"Day 3, animal M1",22.20 g
same,Body weights on Day 3,"Day 3, animal M2",22.00 g
same,Body weights on Day 3,"Day 3, animal M3",21.20 g
same,Body weights on Day 3,"Day 3, animal M4",19.50 g
same,Body weights on Day 3,"Day 3, animal M5",22.00 g
same,Percent inhibition of body weight vs vehicle (PIBW),Day 3,−0.6705%
same,Body Weight (g) (Mean ± SD),Day 6,20.41 ± 0.960 g
same,Body weights on Day 6,"Day 6, animal F1",20.40 g
same,Body weights on Day 6,"Day 6, animal F2",18.40 g
same,Body weights on Day 6,"Day 6, animal F3",19.70 g
same,Body weights on Day 6,"Day 6, animal F4",20.10 g
same,Body weights on Day 6,"Day 6, animal F5",20.50 g
same,Body weights on Day 6,"Day 6, animal M1",20.90 g
same,Body weights on Day 6,"Day 6, animal M2",21.80 g
same,Body weights on Day 6,"Day 6, animal M3",20.20 g
same,Body weights on Day 6,"Day 6, animal M4",20.50 g
same,Body weights on Day 6,"Day 6, animal M5",21.60 g
same,Percent inhibition of body weight vs vehicle (PIBW),Day 6,−0.0490%
same,Body Weight (g) (Mean ± SD),Day 9,20.99 ± 1.049 g
same,Body weights on Day 9,"Day 9, animal F1",21.70 g
same,Body weights on Day 9,"Day 9, animal F2",19.50 g
same,Body weights on Day 9,"Day 9, animal F3",21.10 g
same,Body weights on Day 9,"Day 9, animal F4",19.50 g
same,Body weights on Day 9,"Day 9, animal F5",21.70 g
same,Body weights on Day 9,"Day 9, animal M1",21.30 g
same,Body weights on Day 9,"Day 9, animal M2",22.10 g
same,Body weights on Day 9,"Day 9, animal M3",20.60 g
same,Body weights on Day 9,"Day 9, animal M4",20.00 g
same,Body weights on Day 9,"Day 9, animal M5",22.40 g
same,Percent inhibition of body weight vs vehicle (PIBW),Day 9,−2.8417%
same,Body Weight (g) (Mean ± SD),Day 12,22.09 ± 1.079 g
same,Body weights on Day 12,"Day 12, animal F1",22.50 g
same,Body weights on Day 12,"Day 12, animal F2",20.10 g
same,Body weights on Day 12,"Day 12, animal F3",21.40 g
same,Body weights on Day 12,"Day 12, animal F4",21.70 g
same,Body weights on Day 12,"Day 12, animal F5",22.20 g
same,Body weights on Day 12,"Day 12, animal M1",22.80 g
same,Body weights on Day 12,"Day 12, animal M2",23.40 g
same,Body weights on Day 12,"Day 12, animal M3",22.20 g
same,Body weights on Day 12,"Day 12, animal M4",21.00 g
same,Body weights on Day 12,"Day 12, animal M5",23.60 g
same,Percent inhibition of body weight vs vehicle (PIBW),Day 12,−0.9137%
same,Body Weight (g) (Mean ± SD),Day 15,22.22 ± 1.963 g
same,Body weights on Day 15,"Day 15, animal F1",21.30 g
same,Body weights on Day 15,"Day 15, animal F2",18.70 g
same,Body weights on Day 15,"Day 15, animal F3",20.20 g
same,Body weights on Day 15,"Day 15, animal F4",22.20 g
same,Body weights on Day 15,"Day 15, animal F5",22.20 g
same,Body weights on Day 15,"Day 15, animal M1",24.50 g
same,Body weights on Day 15,"Day 15, animal M2",24.20 g
same,Body weights on Day 15,"Day 15, animal M3",22.70 g
same,Body weights on Day 15,"Day 15, animal M4",21.30 g
same,Body weights on Day 15,"Day 15, animal M5",24.90 g
same,Percent inhibition of body weight vs vehicle (PIBW),Day 15,−0.3613%
same,body weight effect in words (loss / difference vs vehicle group),,no statistical differences in body weights

# From patent US20100267637A1, “TREATMENT OF MELANOMA WITH ALPHA THYMOSIN PEPTIDES IN COMBINATION WITH A KINASE INHIBITOR” (SciClone Pharmaceuticals, Inc., priority 2007, published 2010)
